Tests used:
[1] = molecular target: T1, D(2) dopamine receptor (Homo sapiens, UniProt P14416); assay: Displacement of [3H]-methyl-spiperone from human dopamine D2L receptor expressed in HEK293 cell membranes after 1 hr by radioligand binding assay
[2] = molecular target: D(3) dopamine receptor (Homo sapiens, UniProt P35462); assay: Displacement of [3H]-methyl-spiperone from human dopamine D3 receptor expressed in CHO cell membranes after 1 hr by liquid scintillation counting
[3] = molecular target: 5-hydroxytryptamine receptor 6 (Homo sapiens, UniProt P50406); assay: Displacement of [3H]-LSD from human 5-HT6R expressed in CHO cell membranes by radioligand binding assay
[4] = molecular target: T1, D(2) dopamine receptor; assay: Displacement of [3H]-methyl-spiperone from human dopamine D2L receptor expressed in HEK293 cell membranes at […] after 1 hr by radioligand binding assay

T1 sequence (P14416 whole entry): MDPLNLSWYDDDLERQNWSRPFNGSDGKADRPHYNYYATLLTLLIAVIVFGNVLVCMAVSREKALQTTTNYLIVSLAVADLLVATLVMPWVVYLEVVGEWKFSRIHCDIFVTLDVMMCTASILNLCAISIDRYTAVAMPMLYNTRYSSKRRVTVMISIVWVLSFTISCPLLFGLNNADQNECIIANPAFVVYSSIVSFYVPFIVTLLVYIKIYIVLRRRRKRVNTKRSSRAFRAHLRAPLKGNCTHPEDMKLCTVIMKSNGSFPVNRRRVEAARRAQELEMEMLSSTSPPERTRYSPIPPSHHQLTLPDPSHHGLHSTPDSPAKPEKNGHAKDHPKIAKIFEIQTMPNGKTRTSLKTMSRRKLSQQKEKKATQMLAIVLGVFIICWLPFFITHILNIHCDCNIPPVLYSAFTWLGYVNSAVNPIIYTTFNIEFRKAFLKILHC
5-hydroxytryptamine receptor 6, sequence (P50406 whole entry): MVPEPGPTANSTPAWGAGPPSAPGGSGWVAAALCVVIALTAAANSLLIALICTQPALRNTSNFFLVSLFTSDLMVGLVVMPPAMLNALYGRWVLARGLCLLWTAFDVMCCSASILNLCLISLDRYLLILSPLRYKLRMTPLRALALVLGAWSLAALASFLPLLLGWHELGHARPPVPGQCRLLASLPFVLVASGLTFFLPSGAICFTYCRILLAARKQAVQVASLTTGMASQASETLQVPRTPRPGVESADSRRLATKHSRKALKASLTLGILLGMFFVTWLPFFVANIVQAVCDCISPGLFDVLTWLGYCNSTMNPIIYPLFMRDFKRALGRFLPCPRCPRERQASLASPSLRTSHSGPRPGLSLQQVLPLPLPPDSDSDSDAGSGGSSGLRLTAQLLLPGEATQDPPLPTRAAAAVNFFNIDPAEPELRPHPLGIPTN
D(3) dopamine receptor, sequence (P35462 whole entry): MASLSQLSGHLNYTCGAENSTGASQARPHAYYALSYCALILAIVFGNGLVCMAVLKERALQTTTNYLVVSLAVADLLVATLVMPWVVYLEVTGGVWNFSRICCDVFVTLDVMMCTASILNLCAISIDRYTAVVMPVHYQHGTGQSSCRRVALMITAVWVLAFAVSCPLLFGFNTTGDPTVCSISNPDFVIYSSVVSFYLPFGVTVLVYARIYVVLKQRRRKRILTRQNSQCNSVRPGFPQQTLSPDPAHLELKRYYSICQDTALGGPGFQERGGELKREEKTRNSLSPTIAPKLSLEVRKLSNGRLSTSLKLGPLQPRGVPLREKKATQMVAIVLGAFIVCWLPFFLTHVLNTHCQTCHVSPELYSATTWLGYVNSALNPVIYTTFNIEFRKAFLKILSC

Row | Structure (SMILES) | Ki [1] [µM] | Ki [2] [µM] | Ki [3] [µM] | inhibition [4] [%]
1 | O=S(=O)(c1ccccc1)n1ccc2cc3c(cc21)[C@H]1CCNCC[C@@H]31 | > 10 | 3.16 | 0.158 | 
2 | CN[C@H]1c2c(ccc3c2ccn3S(=O)(=O)c2ccccc2)[C@@H]1CCO (relative stereo) | 15.8 | 1.26 | 0.2 | 
3 | CN[C@@H]1c2ccc3c(ccn3S(=O)(=O)c3ccccc3)c2[C@@H]1CCO | > 10 | > 10 | 0.0251 | 
4 | CN[C@@H]1c2cc3c(ccn3S(=O)(=O)c3ccccc3)cc2[C@@H]1CCO (relative stereo) | > 10 | 1 | 0.126 | 
5 | CN(C)[C@@H]1c2cc3ccn(S(=O)(=O)c4ccccc4)c3cc2[C@H]1CCO (relative stereo) |  | 1.26 | 0.0126 | 22
6 | CNCC1Cc2ccc3c(ccn3S(=O)(=O)c3ccccc3)c21 (centres undefined) | 2 | 1.26 | 0.00158 | 
7 | CN[C@@H]1c2cc3ccn(S(=O)(=O)c4ccccc4)c3cc2[C@H]1CCO (relative stereo) | 15.8 | 2 | 0.00398 | 
8 | CN[C@H]1c2cc3ccn(S(=O)(=O)c4ccccc4)c3cc2[C@H]1CCO (relative stereo) |  | 1.26 | 0.01 | 30
9 | CN[C@H]1c2ccc3c(ccn3S(=O)(=O)c3ccccc3)c2[C@@H]1CCO (relative stereo) | > 10 | 1.26 | 0.158 | 
10 | CN[C@H]1c2c(ccc3c2ccn3S(=O)(=O)c2ccccc2)[C@H]1CCO (relative stereo) | > 10 | > 10 | 0.00794 | 

Further lines, results first:

Row | Ki [1] [µM] | Ki [2] [µM] | Ki [3] [µM] | inhibition [4] [%] | Structure (SMILES)
11 | 0.251 | 0.501 | 0.0794 |  | CC(=O)Nc1ccc(CCN(C)CC2Cc3ccc4c(ccn4S(=O)(=O)c4ccccc4)c32)cc1 (centres undefined)
12 | 1 | 0.251 | 0.001 |  | CNCC1Cc2ccc3c(ccn3S(=O)(=O)c3cccc4ccccc34)c21 (centres undefined)
13 | 0.794 | 1 | 0.0501 |  | O=S(=O)(c1ccccc1)n1ccc2c3c(ccc21)[C@H]1CCNCC[C@@H]31 (relative stereo)
14 |  | 0.126 | 0.316 | 19 | CN(C)[C@H]1c2cc3c(ccn3S(=O)(=O)c3ccccc3)cc2[C@@H]1CCO (relative stereo)
15 | > 10 | 0.398 | 0.0398 |  | CN(C)[C@H]1c2cc3ccn(S(=O)(=O)c4ccccc4)c3cc2[C@H]1CCO (relative stereo)
16 | 6.31 | 0.251 | 0.158 |  | CN[C@H]1c2cc3c(ccn3S(=O)(=O)c3ccccc3)cc2[C@@H]1CCO (relative stereo)
17 |  | 0.631 | 0.316 | 20 | CN(C)[C@@H]1c2cc3c(ccn3S(=O)(=O)c3ccccc3)cc2[C@@H]1CCO (relative stereo)
18 | 2.51 | 0.794 | 0.001 |  | CNCC1Cc2cc3ccn(S(=O)(=O)c4cccc5ccccc45)c3cc21 (centres undefined)
